Results on 1 molecule are retold here after ChEMBL document CHEMBL3603746, “Discovery of New H2S Releasing Phosphordithioates and 2,3-Dihydro-2-phenyl-2-sulfanylenebenzo[d][1,3,2]oxazaphospholes with Improved Antiproliferative Activity” (J Med Chem, 2015).

The test system of data set [1] is MCF7. Nature of the data set: Cytotoxicity against human MCF7 cells assessed as inhibition of cell proliferation after 4 days by crystal violet assay. The note with it: MCF7, 96 h. It is filed as functional, cell-based.
The test system of a further data set is SK-OV-3. In words: Cytotoxicity against human SKOV3 cells assessed as inhibition of cell proliferation after 4 days by crystal violet assay. It is filed as functional, cell-based. The note with it: SK-OV-3, 96 h.
Data set [2] is described as follows: Toxicity in human WI38 cells assessed as inhibition of cell proliferation after 4 days by crystal violet assay.
Data set [3] in a line: Therapeutic index, ratio of IC50 for human WI38 cells to IC50 for human SKOV3 cells. The note with it: WI38 cells and SKOV3 cells.
A short description of data set [4]: Toxicity in transforming growth factor alpha transgenic mouse hepatocytes assessed as inhibition of cell proliferation after 24 hrs by CellTiter-Glo cell viability assay. It counts as cell-based, Hepatocyte.
Data set [5] in a line: Toxicity in human AC10 cells assessed as inhibition of cell proliferation after 24 hrs by CellTiter-Glo cell viability assay. It is filed as cell-based.
A short description of data set [6]: Induction of H2S release in 10% PBS:MeCN solution at 1 mM incubated at 22 degC in dark condition measured at 72 hrs by 2, 6-dansyl azide probed-based fluorescence assay. It is filed as physicochemical. Conditions: buffer, 1000 µM.
Data set [7] in a line: Induction of H2S release in 10% PBS:MeCN solution at 100 uM incubated at 37 degC in dark condition measured at 72 hrs by 2, 6-dansyl azide probed-based fluorescence assay. It is filed as physicochemical. Conditions: buffer.
The test system of data set [8] is MCF7. In words: Antitumor activity against human MCF7 tumor spheroids assessed as tumor growth inhibition at 100 uM after 14 days by inverted microscopic analysis relative to control. It is filed as functional. Conditions: MCF7, 336 h, read-out: TGI.
The subject of data set [9] is MCF7. In words: Antitumor activity against human MCF7 tumor spheroids assessed as tumor growth inhibition at 200 uM after 14 days by inverted microscopic analysis relative to control. Conditions: MCF7, 336 h, read-out: TGI. It counts as functional.
In data set [10] the test system is MCF7. In words: Antitumor activity against human MCF7 tumor spheroids assessed as tumor growth inhibition at 400 uM after 14 days by inverted microscopic analysis relative to control. The note with it: MCF7, 336 h, read-out: TGI. It is filed as functional.
In data set [11] the test system is MCF7. Nature of the data set: Antitumor activity against human MCF7 tumor spheroids assessed as tumor growth inhibition at 800 uM after 14 days by inverted microscopic analysis relative to control. It counts as functional. The note with it: MCF7, 336 h, read-out: TGI.

As for `S=P1(c2ccccc2)Nc2ccccc2O1` (configuration not stated), the IC50 with MCF7 [1] was 5.7 µM; in the data set on SK-OV-3 it was 6.12 µM. In [2], the IC50 at 4 days was above 50 µM. Also, the selectivity ratio in data set [3] was determined as 8.2. Also, the IC50 at 24 h in [4] came out at 26.3 µM; in data set [5], 98 µM. For the same molecule, the figures for the Activity in [6] and in data set [7] were 150 µM and 77.6 µM, respectively. Further, the inhibition of growth at 100 µM with MCF7 [8] came out at 69.7%. For the same molecule, in the data set on MCF7 [9], the inhibition of growth at 200 µM turned out to be 75.3%. In addition, the inhibition of growth at 400 µM in the data set on MCF7 [10] came out at 83.7%. Further, the inhibition of growth at 800 µM in the data set with MCF7 [11] was 91%.
